How the values were obtained:
Experiment in all cases: kinase panel
Type in all cases: biochemical
DYRK2(h) = biological target: T1, DYRK2(h) (Homo sapiens, UniProt Q92630)
T1 sequence (Q92630 1-601): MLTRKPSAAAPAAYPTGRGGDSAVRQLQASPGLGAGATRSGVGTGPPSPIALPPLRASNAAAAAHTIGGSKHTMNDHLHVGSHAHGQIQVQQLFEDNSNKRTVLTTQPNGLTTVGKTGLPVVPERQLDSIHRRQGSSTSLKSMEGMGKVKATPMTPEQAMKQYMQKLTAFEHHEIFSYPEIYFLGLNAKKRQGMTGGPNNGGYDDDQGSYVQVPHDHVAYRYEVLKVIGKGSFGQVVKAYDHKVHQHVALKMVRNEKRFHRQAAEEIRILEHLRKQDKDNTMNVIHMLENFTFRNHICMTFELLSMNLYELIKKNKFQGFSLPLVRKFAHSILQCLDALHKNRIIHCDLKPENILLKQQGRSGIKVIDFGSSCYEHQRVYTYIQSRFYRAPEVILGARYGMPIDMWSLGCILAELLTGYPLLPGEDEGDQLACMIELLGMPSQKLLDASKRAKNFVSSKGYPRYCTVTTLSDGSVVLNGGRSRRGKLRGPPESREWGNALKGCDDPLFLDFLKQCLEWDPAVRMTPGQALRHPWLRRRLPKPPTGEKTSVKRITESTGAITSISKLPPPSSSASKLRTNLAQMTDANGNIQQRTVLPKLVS
Outline: (§1)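 Values are percent inhibition from kinome-wide profiling of three series compounds across 231 kinases, with a structurally similar analogue tested on only 98 selected kinases.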

SAPK3(h) = biological target: T2, SAPK3(h) (Homo sapiens, UniProt P53778)
T2 sequence (P53778 1-367): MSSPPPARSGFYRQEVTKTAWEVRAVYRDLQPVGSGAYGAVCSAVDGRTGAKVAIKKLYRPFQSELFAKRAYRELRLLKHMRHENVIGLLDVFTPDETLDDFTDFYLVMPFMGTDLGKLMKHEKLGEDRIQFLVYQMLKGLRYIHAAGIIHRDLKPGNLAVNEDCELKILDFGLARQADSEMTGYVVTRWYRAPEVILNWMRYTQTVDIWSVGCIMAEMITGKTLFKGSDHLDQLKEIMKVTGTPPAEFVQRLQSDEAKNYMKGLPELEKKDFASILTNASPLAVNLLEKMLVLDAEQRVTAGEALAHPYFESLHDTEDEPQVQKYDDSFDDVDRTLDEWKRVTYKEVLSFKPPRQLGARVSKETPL
Outline: as §1

PRK2(h) = PRK2(h) (Homo sapiens, UniProt Q16513)
Outline: as §1

CaMKIIδ(h) = CaMKIIδ(h) (Homo sapiens, UniProt Q13557)
Outline: as §1

CDK2/cyclinE(h) = CDK2/cyclinE(h) (Homo sapiens, UniProt P24941)
Outline: as §1

SGK(h) = biological target: T3, SGK(h) (Homo sapiens, UniProt O00141)
T3 sequence (O00141 1-431): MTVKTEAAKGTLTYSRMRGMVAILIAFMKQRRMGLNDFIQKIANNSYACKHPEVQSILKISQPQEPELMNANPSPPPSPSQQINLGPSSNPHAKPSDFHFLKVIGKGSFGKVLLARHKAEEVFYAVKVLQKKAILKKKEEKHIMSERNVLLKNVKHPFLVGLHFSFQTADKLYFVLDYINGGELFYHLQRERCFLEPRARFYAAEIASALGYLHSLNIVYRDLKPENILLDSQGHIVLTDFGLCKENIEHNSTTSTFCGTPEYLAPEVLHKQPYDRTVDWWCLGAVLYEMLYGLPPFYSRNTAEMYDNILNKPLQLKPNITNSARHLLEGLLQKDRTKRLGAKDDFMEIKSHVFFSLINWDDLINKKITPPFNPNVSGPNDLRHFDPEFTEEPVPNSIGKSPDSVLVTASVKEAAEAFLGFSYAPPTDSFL
Outline: as §1

Fes(h) = Fes(h) (Homo sapiens, UniProt P07332)
Outline: as §1

ROCK-I(h) = ROCK-I(h) (Homo sapiens, UniProt Q13464)
Outline: as §1

Flt3(h) = biological target: T4, Flt3(h) (Homo sapiens, UniProt P36888)
T4 sequence (P36888 27-993): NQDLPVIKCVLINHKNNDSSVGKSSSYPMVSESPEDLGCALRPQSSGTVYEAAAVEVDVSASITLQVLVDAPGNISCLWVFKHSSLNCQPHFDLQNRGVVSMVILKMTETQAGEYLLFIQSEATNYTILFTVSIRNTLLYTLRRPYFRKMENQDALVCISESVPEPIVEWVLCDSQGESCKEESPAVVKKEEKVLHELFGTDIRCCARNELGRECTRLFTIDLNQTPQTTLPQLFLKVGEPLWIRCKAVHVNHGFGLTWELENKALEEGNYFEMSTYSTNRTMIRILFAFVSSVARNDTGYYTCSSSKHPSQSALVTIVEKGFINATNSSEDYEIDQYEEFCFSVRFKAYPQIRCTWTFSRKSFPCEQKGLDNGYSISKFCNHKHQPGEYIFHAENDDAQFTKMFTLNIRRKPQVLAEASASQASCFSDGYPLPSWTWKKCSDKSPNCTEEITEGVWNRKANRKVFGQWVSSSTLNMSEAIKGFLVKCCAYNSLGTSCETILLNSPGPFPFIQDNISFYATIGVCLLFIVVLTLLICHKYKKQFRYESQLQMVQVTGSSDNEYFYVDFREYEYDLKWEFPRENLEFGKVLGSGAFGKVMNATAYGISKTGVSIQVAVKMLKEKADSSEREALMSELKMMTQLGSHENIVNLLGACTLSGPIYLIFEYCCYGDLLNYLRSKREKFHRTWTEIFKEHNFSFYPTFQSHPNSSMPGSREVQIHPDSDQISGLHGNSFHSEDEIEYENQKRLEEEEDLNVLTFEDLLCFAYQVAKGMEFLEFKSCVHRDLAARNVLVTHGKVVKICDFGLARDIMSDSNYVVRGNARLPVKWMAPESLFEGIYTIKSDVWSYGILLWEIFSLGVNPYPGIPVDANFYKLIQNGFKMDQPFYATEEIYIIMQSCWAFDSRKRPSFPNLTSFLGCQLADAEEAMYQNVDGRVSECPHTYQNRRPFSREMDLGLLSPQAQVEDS
Outline: as §1

PKCη(h) = PKCη(h) (Homo sapiens, UniProt P24723)
Outline: as §1

Chain of ROCK-I(h) (Q13464 whole entry): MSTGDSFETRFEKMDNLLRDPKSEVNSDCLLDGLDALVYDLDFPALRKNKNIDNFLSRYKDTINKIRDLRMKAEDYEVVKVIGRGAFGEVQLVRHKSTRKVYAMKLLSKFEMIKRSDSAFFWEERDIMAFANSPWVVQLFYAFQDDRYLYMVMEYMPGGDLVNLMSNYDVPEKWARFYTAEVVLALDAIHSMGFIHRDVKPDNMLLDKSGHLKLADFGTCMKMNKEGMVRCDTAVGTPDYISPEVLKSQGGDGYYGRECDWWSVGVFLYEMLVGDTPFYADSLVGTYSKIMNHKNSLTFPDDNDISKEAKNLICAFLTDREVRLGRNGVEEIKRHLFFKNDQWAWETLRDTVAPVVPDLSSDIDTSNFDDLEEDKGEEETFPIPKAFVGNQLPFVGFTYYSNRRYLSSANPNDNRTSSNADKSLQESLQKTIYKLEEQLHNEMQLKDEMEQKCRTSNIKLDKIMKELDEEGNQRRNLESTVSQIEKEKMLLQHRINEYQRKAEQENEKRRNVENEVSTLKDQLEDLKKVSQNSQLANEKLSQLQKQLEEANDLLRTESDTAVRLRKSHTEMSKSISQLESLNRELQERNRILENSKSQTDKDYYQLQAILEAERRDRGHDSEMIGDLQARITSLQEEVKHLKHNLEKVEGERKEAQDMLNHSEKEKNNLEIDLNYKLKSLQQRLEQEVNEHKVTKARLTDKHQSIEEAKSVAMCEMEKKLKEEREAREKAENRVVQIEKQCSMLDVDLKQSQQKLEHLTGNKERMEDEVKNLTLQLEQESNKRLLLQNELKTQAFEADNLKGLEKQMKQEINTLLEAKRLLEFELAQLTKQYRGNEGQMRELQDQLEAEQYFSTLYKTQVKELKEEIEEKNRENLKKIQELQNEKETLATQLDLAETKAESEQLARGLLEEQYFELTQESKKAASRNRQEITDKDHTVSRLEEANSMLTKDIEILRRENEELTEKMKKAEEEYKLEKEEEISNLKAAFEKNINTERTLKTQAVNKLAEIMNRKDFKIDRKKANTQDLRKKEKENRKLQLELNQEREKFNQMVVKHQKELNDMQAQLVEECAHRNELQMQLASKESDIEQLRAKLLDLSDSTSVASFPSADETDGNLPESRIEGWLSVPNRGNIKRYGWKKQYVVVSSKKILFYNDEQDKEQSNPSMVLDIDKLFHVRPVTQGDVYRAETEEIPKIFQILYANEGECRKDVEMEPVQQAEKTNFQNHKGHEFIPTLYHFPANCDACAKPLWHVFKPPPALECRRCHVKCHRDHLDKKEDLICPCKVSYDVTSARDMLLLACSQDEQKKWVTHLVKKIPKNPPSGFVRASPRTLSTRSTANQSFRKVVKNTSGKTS
Chain of CaMKIIδ(h) (Q13557 whole entry): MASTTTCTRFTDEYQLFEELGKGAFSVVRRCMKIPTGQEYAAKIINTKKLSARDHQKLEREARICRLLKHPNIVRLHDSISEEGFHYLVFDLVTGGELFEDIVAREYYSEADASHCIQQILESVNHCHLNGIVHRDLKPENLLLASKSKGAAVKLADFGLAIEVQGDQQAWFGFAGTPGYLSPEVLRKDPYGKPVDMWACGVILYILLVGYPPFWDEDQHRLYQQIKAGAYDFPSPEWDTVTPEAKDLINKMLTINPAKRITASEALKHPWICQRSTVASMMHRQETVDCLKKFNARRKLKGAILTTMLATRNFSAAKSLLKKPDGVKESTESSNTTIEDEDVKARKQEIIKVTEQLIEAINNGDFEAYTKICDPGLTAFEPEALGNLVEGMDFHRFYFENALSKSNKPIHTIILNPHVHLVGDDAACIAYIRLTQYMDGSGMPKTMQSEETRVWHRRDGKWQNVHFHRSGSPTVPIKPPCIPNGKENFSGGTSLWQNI
Chain of PRK2(h) (Q16513 whole entry): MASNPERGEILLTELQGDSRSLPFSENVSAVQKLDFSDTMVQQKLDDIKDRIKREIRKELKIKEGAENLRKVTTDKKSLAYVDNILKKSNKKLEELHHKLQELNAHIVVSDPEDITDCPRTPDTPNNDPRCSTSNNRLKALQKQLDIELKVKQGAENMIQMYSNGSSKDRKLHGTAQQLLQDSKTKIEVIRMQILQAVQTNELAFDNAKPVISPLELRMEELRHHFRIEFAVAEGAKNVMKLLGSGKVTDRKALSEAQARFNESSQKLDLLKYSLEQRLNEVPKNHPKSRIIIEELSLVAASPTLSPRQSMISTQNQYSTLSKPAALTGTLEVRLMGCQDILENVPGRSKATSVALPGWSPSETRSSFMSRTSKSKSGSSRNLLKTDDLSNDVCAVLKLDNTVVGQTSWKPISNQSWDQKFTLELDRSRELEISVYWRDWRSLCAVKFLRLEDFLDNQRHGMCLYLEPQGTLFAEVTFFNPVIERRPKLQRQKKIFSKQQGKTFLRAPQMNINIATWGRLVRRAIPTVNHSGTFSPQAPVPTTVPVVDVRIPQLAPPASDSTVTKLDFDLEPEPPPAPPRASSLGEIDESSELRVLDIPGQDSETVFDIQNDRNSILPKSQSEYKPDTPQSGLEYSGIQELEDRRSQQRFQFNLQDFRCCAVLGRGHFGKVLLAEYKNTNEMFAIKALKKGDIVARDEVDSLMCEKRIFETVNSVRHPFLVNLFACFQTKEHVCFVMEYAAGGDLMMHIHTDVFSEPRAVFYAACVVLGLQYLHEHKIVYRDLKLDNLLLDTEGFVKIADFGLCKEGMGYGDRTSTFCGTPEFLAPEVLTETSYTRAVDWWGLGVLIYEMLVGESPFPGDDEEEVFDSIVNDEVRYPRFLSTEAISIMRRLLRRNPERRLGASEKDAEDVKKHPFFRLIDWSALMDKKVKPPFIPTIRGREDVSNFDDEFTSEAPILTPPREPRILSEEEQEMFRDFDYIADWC
Chain of Fes(h) (P07332 whole entry): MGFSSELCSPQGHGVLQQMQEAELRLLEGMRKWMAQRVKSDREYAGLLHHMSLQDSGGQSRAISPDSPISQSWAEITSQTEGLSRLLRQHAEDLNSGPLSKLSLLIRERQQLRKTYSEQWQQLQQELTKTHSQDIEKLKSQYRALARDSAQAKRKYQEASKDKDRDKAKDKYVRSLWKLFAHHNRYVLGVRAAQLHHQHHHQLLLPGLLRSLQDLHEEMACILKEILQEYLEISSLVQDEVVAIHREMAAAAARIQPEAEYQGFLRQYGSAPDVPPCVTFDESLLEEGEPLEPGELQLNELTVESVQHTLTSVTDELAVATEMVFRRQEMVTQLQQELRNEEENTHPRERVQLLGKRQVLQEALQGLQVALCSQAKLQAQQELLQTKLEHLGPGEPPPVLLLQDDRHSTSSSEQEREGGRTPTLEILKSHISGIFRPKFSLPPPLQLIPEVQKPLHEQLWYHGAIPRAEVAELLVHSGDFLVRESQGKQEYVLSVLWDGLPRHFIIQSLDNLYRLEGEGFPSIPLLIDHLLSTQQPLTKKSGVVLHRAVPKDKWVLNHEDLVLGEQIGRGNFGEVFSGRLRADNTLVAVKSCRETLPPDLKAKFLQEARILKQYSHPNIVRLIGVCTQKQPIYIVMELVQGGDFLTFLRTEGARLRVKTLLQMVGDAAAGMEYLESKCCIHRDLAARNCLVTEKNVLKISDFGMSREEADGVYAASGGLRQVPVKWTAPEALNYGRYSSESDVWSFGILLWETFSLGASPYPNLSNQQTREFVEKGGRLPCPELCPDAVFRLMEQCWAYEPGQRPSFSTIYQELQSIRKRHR
Chain of PKCη(h) (P24723 whole entry): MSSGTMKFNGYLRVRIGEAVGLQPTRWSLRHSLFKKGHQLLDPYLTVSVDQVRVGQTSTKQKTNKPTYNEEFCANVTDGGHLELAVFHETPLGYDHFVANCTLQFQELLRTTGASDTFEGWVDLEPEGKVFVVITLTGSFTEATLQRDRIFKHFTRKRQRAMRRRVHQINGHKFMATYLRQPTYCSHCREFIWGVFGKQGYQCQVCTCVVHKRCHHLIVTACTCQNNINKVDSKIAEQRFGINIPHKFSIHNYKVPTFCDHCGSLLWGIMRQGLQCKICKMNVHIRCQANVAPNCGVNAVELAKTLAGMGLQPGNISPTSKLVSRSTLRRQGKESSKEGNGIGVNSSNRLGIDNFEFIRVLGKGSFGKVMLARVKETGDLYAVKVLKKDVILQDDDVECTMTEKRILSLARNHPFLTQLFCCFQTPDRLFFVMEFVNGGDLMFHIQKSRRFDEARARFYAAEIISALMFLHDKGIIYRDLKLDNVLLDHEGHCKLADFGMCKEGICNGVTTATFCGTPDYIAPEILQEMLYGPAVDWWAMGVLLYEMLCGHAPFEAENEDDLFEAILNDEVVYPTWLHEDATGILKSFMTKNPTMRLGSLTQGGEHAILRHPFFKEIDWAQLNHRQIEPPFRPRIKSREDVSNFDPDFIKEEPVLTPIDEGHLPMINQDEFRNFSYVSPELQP

inhibition at 1 µM (DYRK2(h)) [%]	inhibition at 1 µM (SAPK3(h)) [%]	inhibition at 1 µM (PRK2(h)) [%]	inhibition at 1 µM (CaMKIIδ(h)) [%]	inhibition at 1 µM (CDK2/cyclinE(h)) [%]	inhibition at 1 µM (SGK(h)) [%]	inhibition at 1 µM (Fes(h)) [%]	inhibition at 1 µM (ROCK-I(h)) [%]	inhibition at 1 µM (Flt3(h)) [%]	inhibition at 1 µM (PKCη(h)) [%]	Structure (SMILES)
9	44	19	37	29	22	-31	10	36	-1	Nc1n[nH]c2ccc(-c3ccnc4[nH]c(-c5ccnc(OCc6ccccc6)c5)cc34)cc12 [Compound 6g [SU1349]]
43	99	85	80	86	15	80	13	102	2	Nc1n[nH]c2ccc(-c3ccnc4[nH]c(-c5ccccc5)cc34)cc12 [Compound 4]
14	49	56	61	37	-10	50	28	46	2	Nc1n[nH]c2ccc(-c3ccnc4[nH]c(-c5cccc(OCc6ccccc6)c5)cc34)cc12 [Compound 5r [SU1261]]
